Test results: patent US10934283B2, “COMT inhibiting methods and compositions” (LIEBER INSTITUTE FOR BRAIN DEVELOPMENT, priority 2015, dated 2021)

Target: T1, catechol-O-methyltransferase (COMT) (Homo sapiens, UniProt P21964)
T1 construct: M51A variant) was expressed in HEK 293F cells
T1 sequence (P21964 52-271 limits assumed): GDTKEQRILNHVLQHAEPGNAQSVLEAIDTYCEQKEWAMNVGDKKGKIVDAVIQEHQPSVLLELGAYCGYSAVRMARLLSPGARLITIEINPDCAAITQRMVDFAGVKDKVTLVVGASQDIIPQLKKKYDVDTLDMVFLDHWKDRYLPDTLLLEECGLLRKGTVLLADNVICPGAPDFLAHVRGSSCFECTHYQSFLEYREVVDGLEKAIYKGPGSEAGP
Experiment: COMT inhibition assay (HTRF, production of SAH from SAM)
Type: biochemical
Settings: table does not say MB-COMT or S-COMT
Description: The ability of compounds to inhibit the activity of catechol-O-methyltransferase (COMT) was determined by a homogenous time-resolved fluorescent (HTRF) assay (Lina et al, 2012; kit from CisBio, Codolet, France). This assay measures the production of S-adenosyl homocysteine (SAH) from the methyl donor S-adenosyl methionine. Recombinant human membrane bound COMT (MB-COMT; M51A variant) was expressed in HEK 293F cells using 293Fectin (Life Technologies, Gent, Belgium) and membranes prepared. The membranes were re-suspended in buffer (20 mM Tris/HCl pH 7; 10 mM glycerol; 2 mM MgCl2; 10 mM NaCl), aliquoted and stored at −80° C. Recombinant human soluble COMT(S-COMT), Val158 variant and a hexa-His tag on the N-terminus, was purified using Ni-NTA chromatography, the His tag removed and stored in buffer as above.
For the human MB-COMT assay, membranes (62 ng/well) were incubated with SAM (20 μM final, CisBio) and dopamine (1.5 μM final; Sigma H8502, Diegem, Belgium) in the presence or absence of varying concentrations (typically 10 concentrations ranging from 10 ? M to 0.1 nM) of compound for 40 min at 37° C. in 384-well microtiter plates (10 ? l per well final volume). The reaction was terminated by the addition of acylation buffer and the amount of SAH produced determined according to manufacturer's instructions. Specific inhibition as that inhibited by a high concentration of tolcapone and all experiments were validated using a control curve to tolcapone.
The human S-COMT assay was performed as above except that 0.15 ng enzyme/well was incubated with SAM ([…]) and dopamine (100 μM final) for 15 min at 37° C. and SAH production determined.
HTRF readings were performed using a Perkin Elmer Envision and results expressed as concentration of SAH produced using a standard curve. Results were analyzed using non-linear regression to the 4-parameter logistic equation and pIC50 (−log 10 concentration of drug which inhibits enzyme activity/SAH production by 50%) determined.

| Compound | Activity range (pIC50) |
| --- | --- |
| CCc1ccc(CN2CCn3cc(O)c(=O)cc3[C@H]2c2ccccc2)cc1 (single isomer, unassigned) [Example 118] | +++ (three plus signs (+++) is associated with a pIC50 of above about 7) |
| CCc1ccc(CN2CCn3cc(O)c(=O)cc3[C@@H]2c2ccccc2)cc1 (single isomer, unassigned) [Example 119] | +++ (three plus signs (+++) is associated with a pIC50 of above about 7) |
| O=c1cc2n(cc1O)CCN(Cc1ccccc1)C2 [Example 1, 2-benzyl-7-hydroxy-1,2,3,4-tetrahydro-8H-pyrido[1,2-a]pyrazin-8-one] | ++ (two plus signs (++) is associated with a pIC50 of from about 6 to 7) |
| O=c1cc2n(cc1O)CCN(Cc1ccc(C(F)(F)F)cc1)C2 [Example 2, 7-hydroxy-2-[4-(trifluoromethyl)benzyl]-1,2,3,4-tetrahydro-8H-pyrido[1,2-a]pyrazin-8-one] | ++ (two plus signs (++) is associated with a pIC50 of from about 6 to 7) |
| O=c1cc2n(cc1O)CCN(Cc1ccc(F)cc1)C2 [Example 3, 2-[(4-fluorophenyl)methyl]-7-hydroxy-3,4-dihydro-1H-pyrido[1,2-a]pyrazin-8-one] | + (a single plus (+) is associated with a pIC50 of from about 4.5 to 6) |
| O=c1cc2n(cc1O)CCN(CCn1nnc3ccccc31)C2 [Example 4, 2-[2-(benzotriazol-1-yl)ethyl]-7-hydroxy-3,4-dihydro-1H-pyrido[1,2-a]pyrazin-8-one] | + (a single plus (+) is associated with a pIC50 of from about 4.5 to 6) |
| O=c1cc2n(cc1O)CCN(CCn1nc3ccccc3n1)C2 [Example 5, 2-[2-(benzotriazol-2-yl)ethyl]-7-hydroxy-3,4-dihydro-1H-pyrido[1,2-a]pyrazin-8-one] | + (a single plus (+) is associated with a pIC50 of from about 4.5 to 6) |
| O=c1cc2n(cc1O)CCN(Cc1cccc(OC(F)(F)F)c1)C2 [Example 6, 7-hydroxy-2-[3-(trifluoromethoxy)benzyl]-1,2,3,4-tetrahydro-8H-pyrido[1,2-a]pyrazin-8-one] | +++ (three plus signs (+++) is associated with a pIC50 of above about 7) |
| CC(C)(C)c1ccc(CN2CCn3cc(O)c(=O)cc3C2)cc1 [Example 7, 2-(4-tert-butylbenzyl)-7-hydroxy-1,2,3,4-tetrahydro-8H-pyrido[1,2-a]pyrazin-8-one] | +++ (three plus signs (+++) is associated with a pIC50 of above about 7) |
| O=c1cc2n(cc1O)CCN(Cc1ccc(OC(F)(F)F)cc1)C2 [Example 8, 7-hydroxy-2-[4-(trifluoromethoxy)benzyl]-1,2,3,4-tetrahydro-8H-pyrido[1,2-a]pyrazin-8-one] | +++ (three plus signs (+++) is associated with a pIC50 of above about 7) |
| Cc1ccc(CN2CCn3cc(O)c(=O)cc3C2)c(C)c1 [Example 9, 2-(2,4-dimethylbenzyl)-7-hydroxy-1,2,3,4-tetrahydro-8H-pyrido[1,2-a]pyrazin-8-one] | +++ (three plus signs (+++) is associated with a pIC50 of above about 7) |
| CC(C)c1ccc(CN2CCn3cc(O)c(=O)cc3C2)cc1 [Example 10, 7-hydroxy-2-[4-(propan-2-yl)benzyl]-1,2,3,4-tetrahydro-8H-pyrido[1,2-a]pyrazin-8-one] | +++ (three plus signs (+++) is associated with a pIC50 of above about 7) |
| O=c1cc2n(cc1O)CCN(Cc1ccccn1)C2 [Example 11, 7-hydroxy-2-(pyridin-2-ylmethyl)-1,2,3,4-tetrahydro-8H-pyrido[1,2-a]pyrazin-8-one] | ++ (two plus signs (++) is associated with a pIC50 of from about 6 to 7) |
| O=c1cc2n(cc1O)CCN(Cc1ccc(-c3cccnc3)cc1)C2 [Example 12, 7-hydroxy-2-[4-(pyridin-3-yl)benzyl]-1,2,3,4-tetrahydro-8H-pyrido[1,2-a]pyrazin-8-one] | ++ (two plus signs (++) is associated with a pIC50 of from about 6 to 7) |
| CCc1ccc(CN2CCn3cc(O)c(=O)cc3C2)cc1 [Example 13, 2-(4-ethylbenzyl)-7-hydroxy-1,2,3,4-tetrahydro-8H-pyrido[1,2-a]pyrazin-8-one] | +++ (three plus signs (+++) is associated with a pIC50 of above about 7) |
| O=c1cc2n(cc1O)CCN(Cc1cccc3cccnc13)C2 [Example 14, 7-hydroxy-2-(quinolin-8-ylmethyl)-1,2,3,4-tetrahydro-8H-pyrido[1,2-a]pyrazin-8-one] | +++ (three plus signs (+++) is associated with a pIC50 of above about 7) |
| CC(c1ccccc1)N1CCn2cc(O)c(=O)cc2C1 (centres unmarked) [Example 15, 7-hydroxy-2-(1-phenylethyl)-1,2,3,4-tetrahydro-8H-pyrido[1,2-a]pyrazin-8-one] | ++ (two plus signs (++) is associated with a pIC50 of from about 6 to 7) |
| CCc1ccc(C(C)N2CCn3cc(O)c(=O)cc3C2)cc1 (centres unmarked) [Example 16, 2-[1-(4-ethylphenyl)ethyl]-7-hydroxy-1,2,3,4-tetrahydro-8H-pyrido[1,2-a]pyrazin-8-one] | +++ (three plus signs (+++) is associated with a pIC50 of above about 7) |
| N#Cc1ccccc1CN1CCn2cc(O)c(=O)cc2C1 [Example 17, 2-[(7-hydroxy-8-oxo-1,3,4,8-tetrahydro-2H-pyrido[1,2-a]pyrazin-2-yl)methyl]benzonitrile] | ++ (two plus signs (++) is associated with a pIC50 of from about 6 to 7) |
| CCc1ccc(CN2CCn3cc(O)c(=O)cc3C2)cc1[N+](=O)[O-] [Example 18, 2-(4-ethyl-3-nitrobenzyl)-7-hydroxy-1,2,3,4-tetrahydro-8H-pyrido[1,2-a]pyrazin-8-one] | +++ (three plus signs (+++) is associated with a pIC50 of above about 7) |
| O=c1cc2n(cc1O)CCN(CC(c1ccccc1)c1ccccc1)C2 [Example 19, 2-(2,2-diphenylethyl)-7-hydroxy-1,2,3,4-tetrahydro-8H-pyrido[1,2-a]pyrazin-8-one] | ++ (two plus signs (++) is associated with a pIC50 of from about 6 to 7) |
| CCC(CC)CN1CCn2cc(O)c(=O)cc2C1 [Example 20, 2-(2-ethylbutyl)-7-hydroxy-1,2,3,4-tetrahydro-8H-pyrido[1,2-a]pyrazin-8-one] | ++ (two plus signs (++) is associated with a pIC50 of from about 6 to 7) |
| O=c1cc2n(cc1O)CCN(Cc1cc(Cl)cc(Cl)c1)C2 [Example 21, 2-(3,5-dichlorobenzyl)-7-hydroxy-1,2,3,4-tetrahydro-8H-pyrido[1,2-a]pyrazin-8-one] | +++ (three plus signs (+++) is associated with a pIC50 of above about 7) |
| O=c1cc2n(cc1O)CCN(CC1CCCCC1)C2 [Example 22, 2-(cyclohexylmethyl)-7-hydroxy-1,2,3,4-tetrahydro-8H-pyrido[1,2-a]pyrazin-8-one] | ++ (two plus signs (++) is associated with a pIC50 of from about 6 to 7) |
| O=c1cc2n(cc1O)CCN(Cc1ccc(C3CC3)cc1)C2 [Example 23, 2-(4-cyclopropylbenzyl)-7-hydroxy-1,2,3,4-tetrahydro-8H-pyrido[1,2-a]pyrazin-8-one] | +++ (three plus signs (+++) is associated with a pIC50 of above about 7) |
| CC1(C)CCCC2=C1CC(CN1CCn3cc(O)c(=O)cc3C1)CC2 (centres unmarked) [Example 24, 2-[(8,8-dimethyl-1,2,3,4,5,6,7,8-octahydronaphthalen-2-yl)methyl]-7-hydroxy-1,2,3,4-tetrahydro-8H-pyrido[1,2-a]pyrazin-8-one] | +++ (three plus signs (+++) is associated with a pIC50 of above about 7) |
| O=c1cc2n(cc1O)CCN(Cc1ccc(Cl)c(Cl)c1)C2 [Example 25, 2-(3,4-dichlorobenzyl)-7-hydroxy-1,2,3,4-tetrahydro-8H-pyrido[1,2-a]pyrazin-8-one] | +++ (three plus signs (+++) is associated with a pIC50 of above about 7) |
| O=c1cc2n(cc1O)CCN(CC1CCCCCCC1)C2 [Example 26, 2-(cyclooctylmethyl)-7-hydroxy-1,2,3,4-tetrahydro-8H-pyrido[1,2-a]pyrazin-8-one] | ++ (two plus signs (++) is associated with a pIC50 of from about 6 to 7) |
| Cc1cccc(C)c1CN1CCn2cc(O)c(=O)cc2C1 [Example 27, 2-(2,6-dimethylbenzyl)-7-hydroxy-1,2,3,4-tetrahydro-8H-pyrido[1,2-a]pyrazin-8-one] | +++ (three plus signs (+++) is associated with a pIC50 of above about 7) |
